Source: PubChem BioAssay AID2060910 (Molecular Pharmacology Branch, DTP, NCI, 2025)

Tested on: 242566-281-R-J2-PDC complex spheroid viability
Assay: Anticancer human tumor 242566-281-R-J2-PDC patient-derived pancreatic carcinoma cell line growth inhibition [RAS]
Conditions: for IC50: curve of first compound; for viability, T/C: stronger effect = lower value
In short: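 Multi-cell-type spheroids: tumor cells plus HUVEC endothelial cells and mesenchymal stem cells. RAS-pathway inhibitors were combined with targeted agents, each dosed in half-log steps down from clinical Cmax, or from 10 microM when Cmax was unknown.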
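Further: spheroids exposed to compound for 7 days before readout.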
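Wherever viability, T/C is given: 100% = DMSO vehicle control wells.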

`C[C@@H](NC(=O)c1ncnc(N)c1Cl)c1ncc(C(=O)Nc2cc(C(F)(F)F)c(Cl)cn2)s1` + C#Cc1c(F)ccc2cc(O)cc(-c3ncc4c(N5CC6CCC(C5)N6)nc(OCC56CCCN5CC(F)C6)nc4c3F)c12 was tested, and the IC50 (second compound 0.0316 µM) was > 10 µM, the IC50 (second compound 0.1 µM) was > 10 µM and the IC50 (second compound 0.316 µM) was > 10 µM. The IC50 (second compound 1 µM) was > 10 µM, the IC50 (second compound 3.16 µM) was > 10 µM and the IC50 (second compound 10 µM) was > 10 µM. It also gave a viability, T/C (second compound 0.0316 µM, first compound 0.0316 µM) of 93.3%, a viability, T/C (second compound 0.0316 µM, first compound 0.1 µM) of 136% and a viability, T/C (second compound 0.0316 µM, first compound 0.316 µM) of 93.4%. For the same compound, the viability, T/C (second compound 0.0316 µM, first compound 1 µM) was 85.8%, the viability, T/C (second compound 0.0316 µM, first compound 3.16 µM) was 97.9% and the viability, T/C (second compound 0.0316 µM, first compound 10 µM) was 95.3%. For the same compound, the viability, T/C (second compound 0.1 µM, first compound 0.0316 µM) was 91.3%, the viability, T/C (second compound 0.1 µM, first compound 0.1 µM) was 102% and the viability, T/C (second compound 0.1 µM, first compound 0.316 µM) was 90.9%. It also gave a viability, T/C (second compound 0.1 µM, first compound 1 µM) of 88.4%, a viability, T/C (second compound 0.1 µM, first compound 3.16 µM) of 69.9% and a viability, T/C (second compound 0.1 µM, first compound 10 µM) of 88.8%. It also gave a viability, T/C (second compound 0.316 µM, first compound 0.0316 µM) of 75.9%, a viability, T/C (second compound 0.316 µM, first compound 0.1 µM) of 84.1% and a viability, T/C (second compound 0.316 µM, first compound 0.316 µM) of 60.8%. It also gave a viability, T/C (second compound 0.316 µM, first compound 1 µM) of 75.4%, a viability, T/C (second compound 0.316 µM, first compound 3.16 µM) of 68.1% and a viability, T/C (second compound 0.316 µM, first compound 10 µM) of 78.4%. It also gave a viability, T/C (second compound 1 µM, first compound 0.0316 µM) of 67.2%, a viability, T/C (second compound 1 µM, first compound 0.1 µM) of 74.5% and a viability, T/C (second compound 1 µM, first compound 0.316 µM) of 66.6%. For the same compound, the viability, T/C (second compound 1 µM, first compound 1 µM) was 62.1%, the viability, T/C (second compound 1 µM, first compound 3.16 µM) was 64.2% and the viability, T/C (second compound 1 µM, first compound 10 µM) was 71.4%. For the same compound, the viability, T/C (second compound 3.16 µM, first compound 0.0316 µM) was 63.4%, the viability, T/C (second compound 3.16 µM, first compound 0.1 µM) was 66.7% and the viability, T/C (second compound 3.16 µM, first compound 0.316 µM) was 63.7%. The viability, T/C (second compound 3.16 µM, first compound 1 µM) was 53.9%, the viability, T/C (second compound 3.16 µM, first compound 3.16 µM) was 62.2% and the viability, T/C (second compound 3.16 µM, first compound 10 µM) was 66.2%. For the same compound, the viability, T/C (second compound 10 µM, first compound 0.0316 µM) was 63.3%, the viability, T/C (second compound 10 µM, first compound 0.1 µM) was 64% and the viability, T/C (second compound 10 µM, first compound 0.316 µM) was 46.3%. The viability, T/C (second compound 10 µM, first compound 1 µM) was 55%, the viability, T/C (second compound 10 µM, first compound 3.16 µM) was 60.5% and the viability, T/C (second compound 10 µM, first compound 10 µM) was 63.8%.
With `CC1(C)CCC(Nc2ncc(C(F)(F)F)c(-c3c[nH]c4c(P(C)(C)=O)c(C#N)ccc34)n2)CN1` (stereo unspecified) + CCn1c(-c2cccnc2C(C)OC)c2c3cc(ccc31)N1CCOC(CC(NC(=O)C(C(C)C)N(C)C(=O)C3(F)CCN(C(=O)C#CC(C)(C)N(C)C)CC3)C(=O)N3CCCC(N3)C(=O)OCC(C)(C)C2)C1 the IC50 (second compound 0.000949 µM) was > 0.3 µM, the IC50 (second compound 0.003 µM) was > 0.3 µM and the IC50 (second compound 0.00949 µM) was > 0.3 µM. For the same compound, the IC50 (second compound 0.03 µM) was > 0.3 µM, the IC50 (second compound 0.0949 µM) was > 0.3 µM and the IC50 (second compound 0.3 µM) was > 0.3 µM. The viability, T/C (second compound 0.000949 µM, first compound 0.000949 µM) was 114%, the viability, T/C (second compound 0.000949 µM, first compound 0.003 µM) was 100% and the viability, T/C (second compound 0.000949 µM, first compound 0.00949 µM) was 77.1%. It also gave a viability, T/C (second compound 0.000949 µM, first compound 0.03 µM) of 97.6%, a viability, T/C (second compound 0.000949 µM, first compound 0.0949 µM) of 94% and a viability, T/C (second compound 0.000949 µM, first compound 0.3 µM) of 70.7%. For the same compound, the viability, T/C (second compound 0.003 µM, first compound 0.000949 µM) was 111%, the viability, T/C (second compound 0.003 µM, first compound 0.003 µM) was 86% and the viability, T/C (second compound 0.003 µM, first compound 0.00949 µM) was 82.8%. It also gave a viability, T/C (second compound 0.003 µM, first compound 0.03 µM) of 88.2%, a viability, T/C (second compound 0.003 µM, first compound 0.0949 µM) of 95.4% and a viability, T/C (second compound 0.003 µM, first compound 0.3 µM) of 73.6%. It also gave a viability, T/C (second compound 0.00949 µM, first compound 0.000949 µM) of 109%, a viability, T/C (second compound 0.00949 µM, first compound 0.003 µM) of 86.5% and a viability, T/C (second compound 0.00949 µM, first compound 0.00949 µM) of 92.3%. It also gave a viability, T/C (second compound 0.00949 µM, first compound 0.03 µM) of 90.7%, a viability, T/C (second compound 0.00949 µM, first compound 0.0949 µM) of 90.5% and a viability, T/C (second compound 0.00949 µM, first compound 0.3 µM) of 82.9%. The viability, T/C (second compound 0.03 µM, first compound 0.000949 µM) was 95.4%, the viability, T/C (second compound 0.03 µM, first compound 0.003 µM) was 103% and the viability, T/C (second compound 0.03 µM, first compound 0.00949 µM) was 96%. It also gave a viability, T/C (second compound 0.03 µM, first compound 0.03 µM) of 91.1%, a viability, T/C (second compound 0.03 µM, first compound 0.0949 µM) of 70.4% and a viability, T/C (second compound 0.03 µM, first compound 0.3 µM) of 93.4%. For the same compound, the viability, T/C (second compound 0.0949 µM, first compound 0.000949 µM) was 88.2%, the viability, T/C (second compound 0.0949 µM, first compound 0.003 µM) was 93.4% and the viability, T/C (second compound 0.0949 µM, first compound 0.00949 µM) was 90.3%. It also gave a viability, T/C (second compound 0.0949 µM, first compound 0.03 µM) of 84.8%, a viability, T/C (second compound 0.0949 µM, first compound 0.0949 µM) of 64.8% and a viability, T/C (second compound 0.0949 µM, first compound 0.3 µM) of 79.2%. The viability, T/C (second compound 0.3 µM, first compound 0.000949 µM) was 91%, the viability, T/C (second compound 0.3 µM, first compound 0.003 µM) was 83.9% and the viability, T/C (second compound 0.3 µM, first compound 0.00949 µM) was 75.2%. The viability, T/C (second compound 0.3 µM, first compound 0.03 µM) was 63.8%, the viability, T/C (second compound 0.3 µM, first compound 0.0949 µM) was 71.8% and the viability, T/C (second compound 0.3 µM, first compound 0.3 µM) was 79.8%.
`CC1(O)CCCC1n1c(=O)c(C(F)F)cc2cnc(NC3CCN(S(C)(=O)=O)CC3)nc21` (stereo unspecified) + CCn1c(-c2cccnc2C(C)OC)c2c3cc(ccc31)N1CCOC(CC(NC(=O)C(C(C)C)N(C)C(=O)C3(F)CCN(C(=O)C#CC(C)(C)N(C)C)CC3)C(=O)N3CCCC(N3)C(=O)OCC(C)(C)C2)C1 was tested, and the IC50 (second compound 0.000949 µM) was 6.36 µM, the IC50 (second compound 0.003 µM) was 5.99 µM and the IC50 (second compound 0.00949 µM) was 7.7 µM. For the same compound, the IC50 (second compound 0.03 µM) was > 10 µM, the IC50 (second compound 0.0949 µM) was > 10 µM and the IC50 (second compound 0.3 µM) was 6.33 µM. For the same compound, the viability, T/C (second compound 0.000949 µM, first compound 0.0316 µM) was 86.4%, the viability, T/C (second compound 0.000949 µM, first compound 0.1 µM) was 70.1% and the viability, T/C (second compound 0.000949 µM, first compound 0.316 µM) was 63.5%. The viability, T/C (second compound 0.000949 µM, first compound 1 µM) was 94.3%, the viability, T/C (second compound 0.000949 µM, first compound 3.16 µM) was 114% and the viability, T/C (second compound 0.000949 µM, first compound 10 µM) was 26.9%. The viability, T/C (second compound 0.003 µM, first compound 0.0316 µM) was 77.3%, the viability, T/C (second compound 0.003 µM, first compound 0.1 µM) was 63.5% and the viability, T/C (second compound 0.003 µM, first compound 0.316 µM) was 71.9%. The viability, T/C (second compound 0.003 µM, first compound 1 µM) was 91.5%, the viability, T/C (second compound 0.003 µM, first compound 3.16 µM) was 110% and the viability, T/C (second compound 0.003 µM, first compound 10 µM) was 23.6%. It also gave a viability, T/C (second compound 0.00949 µM, first compound 0.0316 µM) of 84.6%, a viability, T/C (second compound 0.00949 µM, first compound 0.1 µM) of 62.4% and a viability, T/C (second compound 0.00949 µM, first compound 0.316 µM) of 70.3%. It also gave a viability, T/C (second compound 0.00949 µM, first compound 1 µM) of 86.8%, a viability, T/C (second compound 0.00949 µM, first compound 3.16 µM) of 95.9% and a viability, T/C (second compound 0.00949 µM, first compound 10 µM) of 41.2%. It also gave a viability, T/C (second compound 0.03 µM, first compound 0.0316 µM) of 78.6%, a viability, T/C (second compound 0.03 µM, first compound 0.1 µM) of 82% and a viability, T/C (second compound 0.03 µM, first compound 0.316 µM) of 83.9%. For the same compound, the viability, T/C (second compound 0.03 µM, first compound 1 µM) was 85.8%, the viability, T/C (second compound 0.03 µM, first compound 3.16 µM) was 84.9% and the viability, T/C (second compound 0.03 µM, first compound 10 µM) was 53.1%. The viability, T/C (second compound 0.0949 µM, first compound 0.0316 µM) was 69.1%, the viability, T/C (second compound 0.0949 µM, first compound 0.1 µM) was 62.8% and the viability, T/C (second compound 0.0949 µM, first compound 0.316 µM) was 69.6%. It also gave a viability, T/C (second compound 0.0949 µM, first compound 1 µM) of 90%, a viability, T/C (second compound 0.0949 µM, first compound 3.16 µM) of 90% and a viability, T/C (second compound 0.0949 µM, first compound 10 µM) of 54.4%. It also gave a viability, T/C (second compound 0.3 µM, first compound 0.0316 µM) of 64.8%, a viability, T/C (second compound 0.3 µM, first compound 0.1 µM) of 67.4% and a viability, T/C (second compound 0.3 µM, first compound 0.316 µM) of 71.6%. It also gave a viability, T/C (second compound 0.3 µM, first compound 1 µM) of 78.9%, a viability, T/C (second compound 0.3 µM, first compound 3.16 µM) of 101% and a viability, T/C (second compound 0.3 µM, first compound 10 µM) of 32.6%.
